The nature of data set [1]: DDA concentrations in spleen and bone marrow. In kind it is in vivo, NSG mice. The note with it: NSG, mouse, ip, daily i.p. 20 mg/kg for 21 days. As for the experimental part:
Bars represent S.E.M. ( ***P<0.001, **P<0.01, t test).
(also on this page, place not known: plasma times treatment mice administration plasma times treatment mice administration mg/kg mg/kg Summary pharmacokinetic parameters mice. were measured daily administration mg/kg days. (***P<0.001, mg/kg DDA in plasma (p.o.) (p.o.) DDA in plasma (µM) i.p. i.v. (mg/kg) 20 T1/2 0.1 T1/2 elimination 1.0 T1/2 - Bioavailability (%EP) (µM) 370 Tmax 0.002 marrow 0.01 0.1 1 10 Control DDA DDA level (µM) ***)

Data set [2] deals with normal hematopoietic progenitor cells. In words: Normal human CD34+ cells engrafted into NSG mice. It is filed as in vivo. The note with it: human BM CD34+ engrafted into NSG mice; 20 mg/kg/day i.p., 3 weeks. The source says:
AML patient and normal bone marrow samples were obtained from patients in the Hematology Department of Toulouse (France), after obtaining consent in accordance with the Declaration of Helsinki[67], and according to institutional guidelines. Samples were stored at the INSERM-1037 HIMIP collection (no. DC-2008-307-CPTP1 HIMIP). For some experiments, fresh leukemic blasts recovered at diagnosis were immediately treated with DDA. In other cases, frozen cells were thawed in IMDM medium with 20% FBS. Patient characteristics are shown in supplementary data 1. Normal bone marrow cells were subjected to Ficoll-Paque density gradient separation to isolate mononuclear cells, followed by CD34+ cell separation using high-gradient magnetic-activated cell sorting, according to the manufacturer’s manual. The in vivo assays were performed with cryopreserved cells.
The engraftment of human primary AML cells was performed on NSG mice. […] Two and a half weeks after the injection of human cells, mice were treated with DDA (20 mg/kg/day by IP injection) or vehicle as control for 2, 3 weeks, after which the engraftment of human AML and normal hematopoietic cells was measured in the bone marrow, spleen and brain by quantifying the percentage of hCD45+CD33+ cells by flow cytometry. The viability of AML cells was established by quantifying the percentage of hCD45+CD33+Annexin-V- cells.

Data set [3] deals with T1, human liver-X-receptor LXRα (Homo sapiens, UniProt Q13133).
T1 construct: expressed in transfected cells; host or cells: HEK293T
T1 sequence (Q13133 1-447): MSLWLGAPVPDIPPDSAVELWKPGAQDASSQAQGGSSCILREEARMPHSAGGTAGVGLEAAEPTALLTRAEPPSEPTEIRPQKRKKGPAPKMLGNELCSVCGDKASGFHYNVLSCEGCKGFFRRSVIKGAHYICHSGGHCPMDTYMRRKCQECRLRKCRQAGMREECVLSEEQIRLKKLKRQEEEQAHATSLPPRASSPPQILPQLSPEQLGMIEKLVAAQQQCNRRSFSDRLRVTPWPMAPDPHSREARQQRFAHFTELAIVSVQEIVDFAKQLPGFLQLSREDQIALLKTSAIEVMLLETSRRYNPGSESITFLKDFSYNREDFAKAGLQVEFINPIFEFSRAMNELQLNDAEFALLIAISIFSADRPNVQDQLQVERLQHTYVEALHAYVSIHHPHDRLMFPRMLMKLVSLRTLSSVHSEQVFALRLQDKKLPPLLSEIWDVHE
T1 sequence (P48443 1-463 partner): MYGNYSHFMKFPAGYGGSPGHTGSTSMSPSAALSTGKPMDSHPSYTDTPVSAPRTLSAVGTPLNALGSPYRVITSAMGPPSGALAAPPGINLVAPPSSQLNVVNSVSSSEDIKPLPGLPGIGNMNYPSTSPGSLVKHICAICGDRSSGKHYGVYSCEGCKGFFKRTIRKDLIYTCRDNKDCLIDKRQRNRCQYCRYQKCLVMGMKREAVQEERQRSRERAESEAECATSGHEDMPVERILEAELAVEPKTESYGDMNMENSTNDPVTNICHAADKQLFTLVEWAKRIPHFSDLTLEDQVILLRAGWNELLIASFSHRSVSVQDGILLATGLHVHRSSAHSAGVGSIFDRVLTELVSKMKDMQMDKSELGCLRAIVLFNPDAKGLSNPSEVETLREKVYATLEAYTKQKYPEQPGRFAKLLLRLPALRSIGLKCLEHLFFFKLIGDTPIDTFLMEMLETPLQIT
In words: LXRE-luciferase gene reporter assay in HEK293T, LXRα. It is filed as cell-based. Particulars: LXRα; 10 µM 22(R)HC; read-out: IC50, inhibition of LXR-dependent luciferase activity stimulated by 22(R)HC. The text has this: HEK293T were used for luciferase assays. Cells were transfected using the PolyEthylenImine (PEI) method with human retinoid-X receptor (RXRγ) and human liver-X-receptors (LXRα or LXRβ) with LXRE-Luc; RXRγ and human farnesoid X receptor (FXR) with EcRE-Luc; RXRγ and human steroid and xenobiotic X receptor (SXR) with DR4-Luc; RXRγ and human peroxisome proliferator activated receptors (PPARα, or PPARγ) with PPRE-Luc; RXRγ and human retinoic acid receptor (RARα) with DR1-Luc; human AHR and human ARNT with a DRE-Luc; human vitamin D receptor (VDR) with VDRE-Luc. Cells were transfected with plasmids encoding human glucocorticoid receptor (GR), progesterone receptor (PR), or androgen receptor (AR) with MMTV-Luc; or estrogen receptors (ERα and ERβ) with an ERE-Luc. The day after transfection with the luciferase reporter gene construct, cells were seeded in 12-well plates (50,000 cells per well). After 6 h, cells were then treated with the following ligands dissolved in ethanol: 10 nM estradiol (E2) for ERα and ERβ; 10 nM R1881 for AR; 10 nM R5020 for PR; 10 nM dexamethasone for GR; 10 µM fenofibrate for PPARα; 100 nM rosiglitazone (BRL 49653) for PPARγ; 100 nM cis-retinoic acid (cRA) for RAR; 10 nM dioxine for AHR, 10 µM rifampicine for SXR and 10 µM 22(R) hydroxycholesterol (22(R)HC) for LXRα and LXRβ. At the end of each treatment, cells were lysed in 100 μl lysis buffer (Promega). Luciferase activity was measured using the luciferase assay reagent (Promega), according to the manufacturer’s instructions. Protein concentrations were measured using the Bradford method to normalize luciferase activities. For each condition, luciferase activity was calculated from the data of three independent wells.

Like-named read-outs stand apart in the source and are kept apart here.

Consider `CC(C)CCC[C@@H](C)[C@H]1CC[C@H]2[C@@H]3C[C@@H](NCCc4cnc[nH]4)[C@@]4(O)C[C@@H](O)CC[C@]4(C)[C@H]3CC[C@]12C` [DDA, Dendrogenin A], for which the concentration at 21 days in data set [1] (bone marrow, read-out: DDA concentration in the bone marrow) turned out to be 3480 ± 530 nM; in data set [1] (spleen, read-out: DDA concentration in the spleen), 1320 ± 30 nM. Further, the “effect on normal hematopoietic progenitor cells” value in data set [2] was “no effect”. For the same compound, the IC50 in data set [3] amounted to 362 ± 52 nM.

Source of the values: publication PMC5712521, “Dendrogenin A drives LXR to trigger lethal autophagy in cancers” (Nature Communications, 2017).
